Test results from patent publication US20250129101A1, “Compound, Pharmaceutical Composition Comprising the Same and Method for Treating Cancer Using the Same” (NATIONAL TSING HUA UNIVERSITY, priority 2023, published 2025).

Columns and labels:
4T1 R8 cells [1] = experiment: Time-lapse imaging of mitotic progression, 4T1 R8 cells; format: cell-based, mouse; details: 1 μM 7S9 and 400 nM paclitaxel
Description: To investigate the role of KIF2C in cell cycle progression, 4T1 cells were cultured in the 4-well chamber slide with about 50% confluence. The culture medium was replaced with a CO2-independent medium (Gibco) supplemented with 10% fetal bovine serum (Biological Industries) and 1% penicillin-streptomycin (Biowest). Then, each well of the chamber slide was treated with indicated drugs, such as DMSO, KIF2C inhibitors, or chemotherapy drugs. After that, the chamber slide was maintained in the microscope stage incubator with the supplement of humidified air with 5% CO2 at 37° C. Multiple-positional time-lapse imaging was performed using an automated Leica DM16000 inverted microscope equipped with HCX PL FL 20×/0.4 and EMCCD camera (Andor Luca R, Belfast, UK). Sequential differential interference contrast (DIC) images of cells obtained at indicated intervals were further analyzed using Metamorph software (Molecular Devices).

4T1 cells [2] = experiment: Flow cytometry analysis of cell membrane penetration ability; format: cell-based, mouse; details: 2 hr of drug treatment
Description: To quantify the cell membrane penetration ability of different DHTP analogs, 4T1 cells were collected by trypsin after 2 hr of drug treatment and then transferred into microcentrifuge tubes. 4T1 cells were then resuspended into the FACS buffer (1% FBS, 2 mM EDTA, and 0.05% NaN3 in PBS). After two times of FACS buffer rinsing, these samples were detected by flow cytometry (Cyto FLEX™ FLOW Cytometer). The KO525 (405 nm laser; 525 nm filter) channel was used to detect DHTP and 7S9.

4T1 R4 cells [3] = experiment: Cell viability assay, 4T1 R4 cells; format: cell-based, mouse; details: with 400 nM paclitaxel, 72 hr
Description: (§1) MCF-7, MDA-MB-231, MDA-MB-468, Hs578T, 4T1, and HeLa cell lines stably expressing H2B-mCherry and eGFP-tubulin (kindly provided by Dr. Anthony A. Hyman, Max-Planck-Institute for Molecular Cell Biology and Genetics, Dresden, Germany) were cultured in high-glucose Dulbecco's Modified Eagle Medium (DMEM). SK-BR-3 cells were cultured in McCoy's Modified 5a Medium. Hs578T cells were cultured in high-glucose DMEM supplemented with an additional 0.01 mg/mL bovine insulin. […] All mentioned media were supplemented with 10% fetal bovine serum (Gibco) and 1% Penicillin/Streptomycin (Corning), and cells were incubated at 37° C. in a humidified atmosphere containing 5% CO2. HEK293 cells were cultured in HE300 medium (GMEP incorporated, Japan) and maintained in suspension culture with 125 rpm and 8% CO2.
(§2) The cancer cells were cultured in a 96-well plate at a confluence of 1000-2000 cells/well with indicated drugs for specific days. When the time was up, the culture medium in the plate was aspirated and replaced with a prepared CellTiter-Glo reagent/DMEM mixture (1:1 mix of CellTiter-Glo reagent and serum-supplemented DMEM). After incubation for 10 min, the luminescence (proportional to the number of living cells) was measured with an ELISA plate reader to determine the cell viability.

4T1 R8 cells [4] = experiment: Cell viability assay, 4T1 R8 cells; format: cell-based, mouse; details: with 400 nM paclitaxel, 72 hr
Description: as §1, §2

4T1 cells [5] = experiment: In vivo tumor growth inhibition, 4T1 syngeneic model; parameters: species or system mouse; details: 4T1 tumors, BALB/c mice
Description: The mice were housed at the National Health Research Institute (NHRI) Animal Center in accordance with the Institutional Animal Care and Use Committee procedures and guidelines. The 4T1-derived cells, including 4T1, 4T1 R4, and 4T1 R8, used for implantation were harvested during log phase growth and resuspended in phosphate-buffered saline. Each mouse was injected s.c. in the right flank with 5×10^5 cells. After tumor size reached 60-100 mm 3 (D1), mice were divided into groups and received treatment with vehicle or different compounds alone or in combinations. Tumor size, in mm 3, was measured twice per week and calculated from Tumor volume=(w 2×1)/2, where w=width and 1=length in mm of the tumor. The values of tumor size were expressed as mean±SEM.

4T1 R4 cells [6] = experiment: Colony formation assay, 4T1 R4 cells; format: cell-based, mouse; details: 1 μM 7S9 with 400 nM paclitaxel
Description: To assess the long-term survival of breast cancer cell lines following the treatment of KIF2C knockdown or inhibition, the cells trypsinized into single-cell suspension were homogeneously seeded in 6-well cell culture plates at a density of 5000 cells per dish, supplemented with 2× complete medium (50% 4×DMEM, 20% FBS, 2% penicillin-streptomycin, ddH2O, and 2× glutaMAX™), agarose (0.6% for bottom agar layer; 0.3% for top cell layer), ddH2O, and DMEM. After incubation for 24 hr, cells were treated with indicated drugs, such as DMSO, KIF2C inhibitors, or chemotherapy drugs, and then cultured at 37° C. incubator in an atmosphere of humidified air with 5% CO2 for a further 14-30 days. When the cell colonies grew to appropriate sizes, the culture mediums were replaced with PBS for washing. After that, the plates were stained with 10% crystal violet and analyzed using Image J.

CCN1CCN(C(=O)COc2ccc(/C=c3\sc4n(c3=O)C(c3ccc(Cl)cc3)C(C(=O)OC(C)C)=C(C)N=4)cc2)CC1.O=C(O)/C=C\C(=O)O (stereo not shown) [7S9 (133), isopropyl (Z)-5-(4-chlorophenyl)-2-(4-(2-(4-ethylpiperazin-1-yl)-2-oxoethoxy)benzylidene)-7-methyl-3-oxo-2,3-dihydro-5H-thiazolo[3,2-a]pyrimidine-6-carboxylate maleate]
mitotic defects, combined treatment (in words) (4T1 R8 cells [1]): induced significant defects in mitosis | cell penetration, fluorescence signal at 510 nm emission (in words) (4T1 cells [2]): good cell-penetrating property | fold increase of cell sensitivity to 7S9 by paclitaxel (4T1 R4 cells [3]): 10.5 fold | fold increase of cell sensitivity to 7S9 by paclitaxel (4T1 R8 cells [4]): 8 fold | tumor growth inhibition (4T1 cells [5]; 7S9 50 mg/kg intraperitoneally, 5on/2off two cycles): 20.3% | tumor growth inhibition, combination (4T1 cells [5]; 7S9 50 mg/kg with paclitaxel 5 mg/kg): 62.6% | colony formation, combined treatment (in words) (4T1 R4 cells [6]): suppression of colony formation was detected only with combined treatment of 7S9 and paclitaxel
